We go through three molecules from patent publication US6838436B1, “Inhibitors of proteasomal activity for stimulating bone growth” (Osteoscreen Inc., priority 1998, dated 2005).

Marks after values point to notes of the source that are not given here. Where a SMILES comes first, the peptide text is derived from it. The star is where a group is joined. Cbz = O=C(OCc1ccccc1)*; OtBu = CC(C)(C)O*

For assay [1], the system named is proteasomal activity. The note with it: cited from earlier work.
Assay [2] concerns calvaria. Put plainly: Calvarial assay of epoxomicin (Example 7), new bone area. The format is cell-based, mouse. How it is done:
An assay for bone resorption or bone formation is similar to that described by Gowen M. & Mundy G., J Immunol (1986) 136:2478-82. Briefly, four days after birth, the front and parietal bones of ICR Swiss white mouse pups are removed by microdissection and split along the sagittal suture. In an assay for resorption, the bones are incubated in BGJb medium (Irvine Scientific, Santa Ana, Calif.) plus 0.02% (or lower concentration) β-methylcyclodextrin, wherein the medium also contains test or control substances. The medium used when the assay is conducted to assess bone formation is Fitton and Jackson Modified BGJ Medium (Sigma) supplemented with 6 μg/ml insulin, 6 μg/ml transferrin, 6 ng/ml selenous acid, calcium and phosphate concentrations of 1.25 and 3.0 mM, respectively, and ascorbic acid to a concentration of 100 μg/ml is added every two days. The incubation is conducted at 37° C. in a humidified atmosphere of 5% CO2 and 95% air for 96 hours.
New bone formation was determined (using a 10× objective) by measuring the new bone area formed in one field in 3 representative sections of each bone (4 bones per group). Each measurement was carried out ½ field distance from the end of the suture. Both total bone and old bone area were measured. Data were expressed as new bone area in μm^2.

Assay [3] concerns the target chymotrypsin (Bos taurus, UniProt P00766). The note with it: cited from earlier work.
Assay [4] relates to hair follicles. Put plainly: Hair growth without depilation, shaved dorsal trunks (Example 15). The format is in vivo, C57 BL/6 mice. As to conditions: for growth of new hair at the site of drug application: sixteenth day. How it is done: To confirm that the responses described above occurred in the absence of depilation and in other strains of mice, PS1 (0.5%) was applied topically once daily for 5 days to eight week old male C57 BL/6 mice in which the dorsal trunks were shaved but not depilated. For this experiment, the hair of 18 C57 BL/6 mice was carefully clipped the hair from the dorsal trunks. Three groups were tested. One group was treated with PS1 (0.5%) applied topically to the shaved area daily. In the second group, PS1 (1 mg/kg body weight/day) was injected locally into the subcutaneous tissue of the shaved area. These two groups were compared with the third group, which was untreated other than the hair on the dorsal trunk was similarly clipped. Blonde hair dye (extra strength bleach powder and 12% hydrogen peroxide in a 1 to 1 w/v ratio) was applied to the dorsal trunks of all mice on the seventh day in order to make it easier to detect new hair growth represented by appearance in the blonded areas of the natural black hair of the mice associated with induction of melanogenesis.

For the molecule simvastatin, the “effects on proteasomal activity” value in assay [1] was “no effects on proteasomal activity”.
As for `CC[C@H](C)[C@H](NC(=O)[C@H]([C@@H](C)CC)N(C)C(C)=O)C(=O)N[C@H](C(=O)N[C@@H](CC(C)C)C(=O)[C@@]1(C)CO1)[C@@H](C)O` [Epoxomicin], the “bone formed compared with control” value in assay [2] (concentrations of 5-10 nM) is “significantly more bone was formed than in the control”. Besides, the “New Bone Area” value in assay [2] (dose 0.000625 μM) was 2.78 mm^2 × 10^−3; in assay [2] (dose 0.00125 μM) it was 2.80 mm^2 × 10^−3; in assay [2] (dose 0.0025 μM) it was 4.04 mm^2 × 10^−3; in assay [2] (dose 0.005 μM), 6.54# mm^2 × 10^−3; in assay [2] (dose 0.01 μM) it was 5.74# mm^2 × 10^−3. In addition, in assay [3], the “concentration up to which no inhibition appears” value is more than 50 µM.
Consider `CC[C@H](C)[C@H](NC(=O)OCc1ccccc1)C(=O)N[C@@H](CCC(=O)OC(C)(C)C)C(=O)N[C@@H](C)C(=O)N[C@H](C=O)CC(C)C` [PSI, N-carbobenzoyl-Ile-Glu-(OtBu)-Ala-Leu-CHO] (Cbz-IE(OtBu)AL-aldehyde), for which the “growth of new hair at the site of drug application” value in assay [4] (1 mg/kg body weight/day injected locally into the subcutaneous tissue) and in assay [4] (0.5% applied topically once daily for 5 days) was “more rapid growth of new hair” each time. For the same molecule, the “diameter of the hair and of the inner and outer root sheath” value in assay [4] (transverse sections of skin, only in the applied areas) was “increased both the diameter of the hair and the diameter of the inner and outer root sheath”.
